The target of the assay is T1, ΔN190LmDexA (Leuconostoc mesenteroides, UniProt Q03VD8).
T1 construct: gene LEUM_1747; N-terminal 190 residues removed (signal peptide and variable region); 1372 aa, theoretical 150 kDa; borders 191-1562 derived from printed lengths
As to the kind of experiment: DNS assay of released reducing sugar (fructose), Michaelis-Menten fit. The assay is classed as biochemical. Conditions: pH 5.6, 30 °C, 20 mM sodium acetate, 3-300 mM sucrose, 30 min.

Molecules are shown by their SMILES.

T1 sequence (Q03VD8 entry or part of it, stated change not applied): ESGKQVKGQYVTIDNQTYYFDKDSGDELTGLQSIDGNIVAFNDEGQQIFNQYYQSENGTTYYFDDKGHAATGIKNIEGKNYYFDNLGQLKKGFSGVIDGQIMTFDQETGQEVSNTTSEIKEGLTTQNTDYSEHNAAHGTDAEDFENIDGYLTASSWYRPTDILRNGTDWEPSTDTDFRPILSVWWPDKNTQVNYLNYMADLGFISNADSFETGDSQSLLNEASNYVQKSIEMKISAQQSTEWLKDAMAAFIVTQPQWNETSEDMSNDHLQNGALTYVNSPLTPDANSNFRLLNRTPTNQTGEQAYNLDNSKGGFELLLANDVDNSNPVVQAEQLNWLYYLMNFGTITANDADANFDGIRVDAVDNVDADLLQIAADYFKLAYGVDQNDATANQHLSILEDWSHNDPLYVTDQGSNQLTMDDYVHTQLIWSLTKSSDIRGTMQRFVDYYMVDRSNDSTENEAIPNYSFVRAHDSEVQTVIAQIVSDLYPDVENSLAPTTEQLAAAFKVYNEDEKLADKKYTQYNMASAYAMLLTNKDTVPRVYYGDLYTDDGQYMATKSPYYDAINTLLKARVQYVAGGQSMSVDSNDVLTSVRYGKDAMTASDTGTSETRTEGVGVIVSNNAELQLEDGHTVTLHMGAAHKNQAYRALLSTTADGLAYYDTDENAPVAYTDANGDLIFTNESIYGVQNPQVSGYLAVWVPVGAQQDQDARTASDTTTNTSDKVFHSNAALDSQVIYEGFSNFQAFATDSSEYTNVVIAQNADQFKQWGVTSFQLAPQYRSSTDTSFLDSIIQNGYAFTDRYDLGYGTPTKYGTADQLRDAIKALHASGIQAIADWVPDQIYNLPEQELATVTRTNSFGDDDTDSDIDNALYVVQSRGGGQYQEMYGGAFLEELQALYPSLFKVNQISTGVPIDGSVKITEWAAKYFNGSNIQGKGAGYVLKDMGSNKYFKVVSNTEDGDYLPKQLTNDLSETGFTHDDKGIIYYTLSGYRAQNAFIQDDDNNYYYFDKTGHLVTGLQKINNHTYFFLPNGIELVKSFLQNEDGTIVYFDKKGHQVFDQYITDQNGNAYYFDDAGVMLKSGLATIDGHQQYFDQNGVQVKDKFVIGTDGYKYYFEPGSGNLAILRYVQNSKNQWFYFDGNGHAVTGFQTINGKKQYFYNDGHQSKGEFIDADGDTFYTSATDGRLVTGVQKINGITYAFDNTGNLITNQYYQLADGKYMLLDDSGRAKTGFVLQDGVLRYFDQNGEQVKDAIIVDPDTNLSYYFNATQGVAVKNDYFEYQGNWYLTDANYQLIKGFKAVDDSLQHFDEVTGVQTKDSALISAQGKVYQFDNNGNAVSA

Consider `OC[C@H]1O[C@@](CO)(O[C@H]2O[C@H](CO)[C@@H](O)[C@H](O)[C@H]2O)[C@@H](O)[C@@H]1O` [sucrose], for which the Km (commonly the concentration of substrate that gives half-maximal velocity) worked out at 13.7 mM.

Source of the values: paper PMC11243177, “The Discovery, Molecular Cloning, and Characterization of Dextransucrase LmDexA and Its Active Truncated Mutant from Leuconostoc mesenteroides NN710” (Molecules, 2024).
